{
  "source": "paper PMC8286840",
  "about": "“Identifying SARS-CoV-2 antiviral compounds by screening for small molecule inhibitors of Nsp3 papain-like protease” (Biochemical Journal, 2021)",
  "key": {"[1]": {"target": "T1, SARS-CoV-2 PLpro (nsp3 1564–1878) (Severe acute respiratory syndrome coronavirus 2, UniProt P0DTD1)", "assay": "biochemical", "design": "FRET-quenched peptide (Pro3) cleavage by PLpro, 10 min pre-incubation, slope over 20 min, normalised to no-compound control", "details": "low concentration screen, read-out: % of control remaining"}, "[2]": {"target": "T1, SARS-CoV-2 PLpro (nsp3 1564–1878)", "assay": "biochemical", "design": "FRET-quenched peptide (Pro3) cleavage by PLpro, 10 min pre-incubation, slope over 20 min, normalised to no-compound control", "details": "high concentration screen, read-out: % of control remaining"}},
  "note": "Counter-ions that a name gives are not always drawn. Like-named read-outs stand apart in the source and are kept apart here.",
  "data": [
    {"smiles": "CN(C)C(=O)CCSC(SCCC(=O)O)c1cccc(/C=C/c2ccc3ccc(Cl)cc3n2)c1", "note": "(stereo not shown) [MK-571 (sodium salt)]", "values": [
      {"measurement": "remaining activity at 1.25 µM", "setting": "[1]; Well no.=7859", "value": 91.6, "unit": "%"},
      {"measurement": "remaining activity at 3.75 µM", "setting": "[2]; Well no.=7859", "value": 91.2, "unit": "%"}
    ]},
    {"smiles": "O=C(O)CC[C@H]1CC[C@@](c2cc(F)ccc2F)(S(=O)(=O)c2ccc(Cl)cc2)CC1", "note": "[MK-0752]", "values": [
      {"measurement": "remaining activity at 1.25 µM", "setting": "[1]; Well no.=4639", "value": 97.6, "unit": "%"},
      {"measurement": "remaining activity at 3.75 µM", "setting": "[2]; Well no.=4639", "value": 99.5, "unit": "%"}
    ]},
    {"smiles": "CO[C@@H]1COCC[C@@H]1N[C@@H]1CC[C@@](C(=O)N2CCc3ncc(C(F)(F)F)cc3C2)(C(C)C)C1", "note": "[MK-0812 (Succinate)]", "values": [
      {"measurement": "remaining activity at 1.25 µM", "setting": "[1]; Well no.=8321", "value": 97.5, "unit": "%"},
      {"measurement": "remaining activity at 3.75 µM", "setting": "[2]; Well no.=8321", "value": 97.9, "unit": "%"}
    ]},
    {"smiles": "CC(C)c1ccc2c(c1)c(SC(C)(C)C)c(CC(C)(C)C(=O)O)n2Cc1ccc(Cl)cc1", "note": "[MK-886 (L-663,536)]", "values": [
      {"measurement": "remaining activity at 1.25 µM", "setting": "[1]; Well no.=8678", "value": 96.7, "unit": "%"},
      {"measurement": "remaining activity at 3.75 µM", "setting": "[2]; Well no.=8678", "value": 94.2, "unit": "%"}
    ]},
    {"smiles": "CC(C)c1ccc2c(c1)c(SC(C)(C)C)c(CC(C)(C)C(=O)O)n2Cc1ccc(Cl)cc1", "note": "[MK-886]", "values": [
      {"measurement": "remaining activity at 1.25 µM", "setting": "[1]; Well no.=1018", "value": 105, "unit": "%"},
      {"measurement": "remaining activity at 3.75 µM", "setting": "[2]; Well no.=1018", "value": 104, "unit": "%"}
    ]},
    {"smiles": "CN1CC[C@]2(CCN3CCc4c(oc5ccccc45)[C@@H]3C2)N(C)C1=O", "note": "[MK-912]", "values": [
      {"measurement": "remaining activity at 1.25 µM", "setting": "[1]; Well no.=934", "value": 101, "unit": "%"},
      {"measurement": "remaining activity at 3.75 µM", "setting": "[2]; Well no.=934", "value": 104, "unit": "%"}
    ]},
    {"smiles": "O=C(N[C@@H]1CC[C@@H](c2cccc(F)c2F)CN(CC(F)(F)F)C1=O)N1CCC(n2c(=O)[nH]c3ncccc32)CC1", "note": "[MK-0974]", "values": [
      {"measurement": "remaining activity at 1.25 µM", "setting": "[1]; Well no.=7709", "value": 102, "unit": "%"},
      {"measurement": "remaining activity at 3.75 µM", "setting": "[2]; Well no.=7709", "value": 108, "unit": "%"}
    ]},
    {"smiles": "C=CCn1c(=O)c2cnc(Nc3ccc(N4CCN(C)CC4)cc3)nc2n1-c1cccc(C(C)(C)O)n1", "note": "[MK-1775]", "values": [
      {"measurement": "remaining activity at 1.25 µM", "setting": "[1]; Well no.=4947", "value": 102, "unit": "%"},
      {"measurement": "remaining activity at 3.75 µM", "setting": "[2]; Well no.=4947", "value": 99.7, "unit": "%"}
    ]},
    {"smiles": "CCN1C[C@H](C)n2c(c(O)c3c(=O)n(Cc4ccc(F)c(Cl)c4)nc(C(=O)NC)c32)C1=O", "note": "[MK-2048]", "values": [
      {"measurement": "remaining activity at 1.25 µM", "setting": "[1]; Well no.=4731", "value": 107, "unit": "%"},
      {"measurement": "remaining activity at 3.75 µM", "setting": "[2]; Well no.=4731", "value": 104, "unit": "%"}
    ]},
    {"smiles": "NC1(c2ccc(-c3nc4ccn5c(=O)[nH]nc5c4cc3-c3ccccc3)cc2)CCC1", "note": "[MK-2206 2HCl]", "values": [
      {"measurement": "remaining activity at 1.25 µM", "setting": "[1]; Well no.=4625", "value": 102, "unit": "%"},
      {"measurement": "remaining activity at 3.75 µM", "setting": "[2]; Well no.=4625", "value": 102, "unit": "%"}
    ]},
    {"smiles": "CN(C[C@@H]1COCCO1)S(=O)(=O)Nc1ccc2ccc3ncc(-c4cnn(C)c4)cc3c(=O)c2c1", "note": "[MK-2461]", "values": [
      {"measurement": "remaining activity at 1.25 µM", "setting": "[1]; Well no.=4737", "value": 105, "unit": "%"},
      {"measurement": "remaining activity at 3.75 µM", "setting": "[2]; Well no.=4737", "value": 105, "unit": "%"}
    ]},
    {"smiles": "Cc1sc(C)c(C(=O)NC2(c3ccc(C(=O)O)cc3)CC2)c1Cc1ccc(C(F)(F)F)cc1", "note": "[MK-2894]", "values": [
      {"measurement": "remaining activity at 1.25 µM", "setting": "[1]; Well no.=7101", "value": 94.3, "unit": "%"},
      {"measurement": "remaining activity at 3.75 µM", "setting": "[2]; Well no.=7101", "value": 90.7, "unit": "%"}
    ]},
    {"smiles": "O=C(CN1C(=O)C2(CCCC2)NC[C@H]1c1cc(F)cc(F)c1)Nc1ccc2c(c1)C[C@@]1(C2)C(=O)Nc2ncccc21", "note": "[MK-3207 (Hydrochloride)]", "values": [
      {"measurement": "remaining activity at 1.25 µM", "setting": "[1]; Well no.=6950", "value": 93.4, "unit": "%"},
      {"measurement": "remaining activity at 3.75 µM", "setting": "[2]; Well no.=6950", "value": 93.6, "unit": "%"}
    ]},
    {"smiles": "COc1ccc(CNC(=O)c2cc(-c3cncc(C)c3)ncc2-c2nccs2)nc1OC", "note": "[MK-3697]", "values": [
      {"measurement": "remaining activity at 1.25 µM", "setting": "[1]; Well no.=7867", "value": 107, "unit": "%"},
      {"measurement": "remaining activity at 3.75 µM", "setting": "[2]; Well no.=7867", "value": 95.1, "unit": "%"}
    ]},
    {"smiles": "O=C(O)[C@]1(Cc2cccc(Nc3nccs3)n2)CC[C@@H](Oc2cccc(Cl)c2F)CC1", "note": "[MK-5108 (VX-689)]", "values": [
      {"measurement": "remaining activity at 1.25 µM", "setting": "[1]; Well no.=4733", "value": 101, "unit": "%"},
      {"measurement": "remaining activity at 3.75 µM", "setting": "[2]; Well no.=4733", "value": 97.2, "unit": "%"}
    ]},
    {"smiles": "CC(C)(Cc1nc(-c2ccc(O)cn2)no1)C(=O)NC1=C(C(=O)O)CCCC1", "note": "[MK-6892]", "values": [
      {"measurement": "remaining activity at 1.25 µM", "setting": "[1]; Well no.=7953", "value": 101, "unit": "%"},
      {"measurement": "remaining activity at 3.75 µM", "setting": "[2]; Well no.=7953", "value": 100, "unit": "%"}
    ]},
    {"smiles": "O=C(O)Cn1nnc(-c2cc(N3CCC(Oc4cc(F)ccc4Br)CC3)no2)n1", "note": "[MK-8245]", "values": [
      {"measurement": "remaining activity at 1.25 µM", "setting": "[1]; Well no.=4842", "value": 90.5, "unit": "%"},
      {"measurement": "remaining activity at 3.75 µM", "setting": "[2]; Well no.=4842", "value": 85.1, "unit": "%"}
    ]}
  ]
}
